{"source": "patent US6989397B1", "about": "“Iron chelators and uses thereof” (University of Queensland, priority 1999, dated 2006)", "key": {"GADD45 mRNA": {"tested_on": "GADD45 mRNA", "test": "Northern blot analysis of mRNA levels", "format": "cell-based, human", "conditions": "SK-N-MC cells, 20 h; chelators 25 μM, DFO 100 μM", "method": "(§1) FIG. 6. The effect of the chelators on mRNA levels of GADD45, WAF1 and β-actin in SK-N-MC neuroepithelioma cells. Total RNA was extracted from cells after a 20 h incubation with medium alone (control) or medium containing ferric ammonium citrate (100 μg/mL), DFO (100 μM), or the other chelators (25 μM). The isolated RNA was then electrophoresed on a 1.2% agarose-formaldehyde gel, transferred to a hybridisation membrane, and probed under high stringency conditions.\n(§2) Northern blot analysis was performed by isolating total RNA using the Total RNA isolation Reagent from Advanced Biotechnologies Ltd (Surrey, United Kingdom). The RNA (15 μg) was heat denatured at 90° C. for 2 mins in RNA-loading buffer and then loaded onto a 1.2% agarose-formaldehyde gel. After electrophoresis, RNA was transferred to a nylon membrane (GeneScreen, New England Nuclear, Boston, USA) in 10×SSC using the capillary blotting method. The RNA was then cross-linked to the membrane using a UV-crosslinker (UV Stratalinker 1800, Stragene Ltd., USA).\n(§3) The membranes were hybridized with probes specific for human WAF1, GADD-45 and β-actin. The WAF1 probe consisted of a 1 kb fragment from pSXV(ATTC: Cat. No. 79928). The GADD45 probe consisted of a 760 bp fragment from human GADD45 cDNA cloned into pHu145B2 (kindly supplied by Dr. Albert Fornace, National Cancer Institute, NIH, Maryland). The β-actin probe consisted of a 1.4 kb fragment from human β-actin cDNA cloned into pBluescript SK-(ATTC: at. No 37997).\n(§4) Hybridization of probes to the membranes and their subsequent washing were performed as described by Mahmoudi and Lin, 1989, Biotechniques 7, 331–2 using a Hybaid Shake and Stack Hybridization oven (Hybaid Ltd., Middlesex, UK). The membranes were then exposed to Kodak XAR Films at −70° C. with an intensifying screen. The probes were stripped from the nylon membrane by boiling in a solution containing 10 mM Tris-HCl (pH 7.0). 1 mM EDTA (pH 8.0) and 1% SDS for 15–30 mins as described by the membrane manufacturer. Densitometric data were collected with a Laser Densitometer and analyzed by Kodak Biomax Software (Kodak Ltd, USA)."}, "WAF1 mRNA": {"tested_on": "WAF1 mRNA", "test": "Northern blot analysis of mRNA levels", "format": "cell-based, human", "conditions": "SK-N-MC cells, 20 h; chelators 25 μM, DFO 100 μM", "method": "as §1, §2, §3, §4"}, "neuroblastoma (NB)": {"tested_on": "neuroblastoma (NB)", "conditions": "cited from earlier work"}, "[1]": {"tested_on": "59Fe-loaded reticulocytes", "test": "mobilisation of 59Fe from 59Fe-loaded reticulocytes (mitochondrial Fe overload model)", "format": "cell-based, rabbit", "method": "(§5) FIG. 7. The effect of reincubation time with the Fe chelators on ^59Fe mobilization from ^59Fe-loaded reticulocytes. The cells were labelled with ^59Fe-transferrin (3.75 μM) in the presence of the heme synthesis inhibitor, succinylacetone (1 mM), and incubated with the cells for 1 h at 37° C. The ^59Fe-labelled reticulocytes were then incubated with the chelators (200 μM) for 15–240 min at 37° C. The results are Mean±SD (3 determinations) in a typical experiment of three performed.\nas §5, with “9.” for “7.”, “chelator concentration” for “reincubation time with the Fe chelators”, “(10–200” for “(200”\nReticulocytosis was induced by standard procedures (Richardson, D. R., Ponka, P and Vyoral, D (1996) Blood 87, 3477–3488) in New Zealand white rabbits by repeated phlebotomy by cardiac puncture using a protocol approved by the McGill University Animal Care Committee. Reticulocytes were identified based on staining with new methylene blue, and cell counts were determined using an improved Neubauer counting chamber.\nReticulocytes were obtained from chronically bled rabbits as described above and were incubated with 1 mM succinylacetone (SA: Sigma) to inhibit heme synthesis. After a 15 min preincubation in the presence of SA, ^59Fe-Tf ([…]) was added and incubated with the cells for 1 H at 37° C. with shaking. After this incubation the reticulocytes were washed three times with ice-cold PBS to remove non-specifically bound ^59Fe-Tf. The washed ^59Fe-labelled reticulocytes (30–35 μL) were incubated in buffered salt solution (250 μL final volume) with the apochelators. The SA was present in all incubations with the chelators to prevent the utilization of non-heme ^59Fe for heme synthesis. After the incubation, ^59Fe was measured both in washed reticulocytes and in the medium, and the percentage of ^59Fe mobilized from the reticulocytes was then calculated."}, "[2]": {"tested_on": "SK-N-MC neuroepithelioma cells", "test": "59Fe release from prelabelled cells (iron efflux)", "format": "cell-based, human", "conditions": "chelators 0.5–50 μM, 'most effective' refers to concentrations up to 10 μM"}, "[3]": {"tested_on": "SK-N-MC neuroepithelioma cells", "test": "internalized 59Fe uptake from 59Fe-transferrin", "format": "cell-based, human", "conditions": "chelators 0.5–50 μM, 3 hr, 'most effective' refers to concentrations up to 10 μM"}}, "data": [{"smiles": "O=C(NN=Cc1c(O)ccc2ccccc12)c1ccncc1", "note": "[Chelator 311, 2-hydroxy-1-naphthylaldehyde isonicotinoyl hydrazone, reference compound]", "values": [{"measurement": "level of GADD45 mRNA (FIG. 6)", "setting": "GADD45 mRNA", "value": "increase"}, {"measurement": "level of WAF1 mRNA (FIG. 6)", "setting": "WAF1 mRNA", "value": "increase"}]}, {"smiles": "CC(=O)N(O)CCCCCNC(=O)CCC(=O)N(O)CCCCCNC(=O)CCC(=O)N(O)CCCCCN", "note": "[DFO, desferrioxamine, reference compound]", "values": [{"measurement": "decrease in bone infiltration of tumor cells", "setting": "neuroblastoma (NB); 7 of 9 patients with neuroblastoma, 8 hr intravenous infusion", "value": "> 50", "unit": "%"}, {"measurement": "decrease in tumor size", "setting": "neuroblastoma (NB); in 1 patient with neuroblastoma", "value": 48, "unit": "%"}, {"measurement": "effect on mobilizing 59Fe from 59Fe-loaded reticulocytes at high concentrations", "setting": "[1]; high concentrations up to 5 mM, activity similar to control medium", "value": "little effect"}]}, {"smiles": "O=C(NN=Cc1ccco1)c1ccncc1", "note": "[FIH, 2furoylcarboxaldehyde isonicotinoyl hydrazone]", "values": [{"measurement": "cellular 59Fe released from 59Fe-loaded reticulocytes, 1 h reincubation (FIG. 9)", "setting": "[1]; chelator concentration 200 μM (range 10–200 μM), reincubated 1 h at 37° C., 3 determinations", "value": "very low activity"}, {"measurement": "cellular 59Fe mobilized from 59Fe-loaded reticulocytes after 240 min", "setting": "[1]; chelators 200 μM, 240 min of incubation, FIG. 7", "value": 4, "unit": "%"}]}, {"smiles": "O=C(NN=Cc1ccccn1)c1ccccc1", "note": "[PCBH, 2-pyridylcarboxaldehyde benzoyl hydrazone]", "values": [{"measurement": "level of GADD45 mRNA (FIG. 6)", "setting": "GADD45 mRNA", "value": "did not have any effect"}, {"measurement": "level of WAF1 mRNA (FIG. 6)", "setting": "WAF1 mRNA", "value": "did not have any effect"}]}, {"smiles": "O=C(NN=Cc1ccccn1)c1cccs1", "note": "[PCTH, 2-pyridylcarboxaldehyde 2-thiophenecarboxyl hydrazone]", "values": [{"measurement": "efficacy at mobilizing 59Fe as a function of chelator concentration (FIG. 3A)", "setting": "[2]", "value": "most effective chelators"}, {"measurement": "efficacy at preventing 59Fe uptake from 59Fe-Tf as a function of chelator concentration (FIG. 3B)", "setting": "[3]", "value": "most effective chelators"}, {"measurement": "level of GADD45 mRNA (FIG. 6)", "setting": "GADD45 mRNA", "value": "did not have any effect"}, {"measurement": "level of WAF1 mRNA (FIG. 6)", "setting": "WAF1 mRNA", "value": "did not have any effect"}]}]}
